Columns and labels:
MDA-MB-231 cells = test: MDA-MB-231 proliferation assay; assay type: cell-based; conditions: Homo sapiens, 72 hours, YO-PRO-1 readout
Protocol: MDA-MB-231 Proliferation Assay
MDA-MB-231 cells were cultivated in DMEM High Glucose (4.5 g/L) with L-Glutamine (BioConcept, cat. no. 1-26F03-I) supplemented with 1% Na-pyruvate (Sigma, cat. no. S8636), 1% Penicillin-Streptomycin (BioConcept, cat. no. 4-01F00H), and 10% FBS (Sigma, cat. no. F9665) using standard techniques. Cells were seeded in black, clear-bottom 384 well plates for tissue culture (Greiner Bio-One, cat. no. 781091) at a density of 750 cells per well in 20 μL medium and the plates were incubated overnight at 37° C. with 5% CO2 prior to treatment. Experimental compounds were serially diluted in DMSO to 200× the desired final concentrations. The solutions were then diluted 1:40 with culture medium and 5 μL aliquots were mixed into the wells containing the cells. The final concentration of DMSO was 0.5%. The plates were incubated for 72 hours and cell numbers were then measured using YO-PRO™-1 Iodide (ThermoFisher Scientific, cat. no. Y3603) essentially as recommended by the manufacturer. […] The plates were incubated at room temperature in the dark for 30 minutes. Fluorescence intensity signals were then measured on a Synergy 4 reader (BioTek) using 485/20 nm and 530/25 nm filters for the excitation and emission, respectively. Relative proliferation values were calculated by normalizing the raw data using DMSO-treated cells (100% proliferation) and the signals obtained from cells that were evaluated at the time of compound addition (0% proliferation). The concentration-response data were fitted to a sigmoidal 4-parameter logistic model with the maximum constrained to 100%.

recombinant human CLK3 = target: T1, recombinant human CLK3 (Homo sapiens, UniProt P49761); test: CLK3 kinase assay (LANCE Ultra); assay type: biochemical; conditions: 0.5 nM CLK3, 300 μM ATP, 3 hours at 30° C.
T1 construct: purchased Thermo Fisher Scientific PV3826
T1 sequence (P49761 whole entry): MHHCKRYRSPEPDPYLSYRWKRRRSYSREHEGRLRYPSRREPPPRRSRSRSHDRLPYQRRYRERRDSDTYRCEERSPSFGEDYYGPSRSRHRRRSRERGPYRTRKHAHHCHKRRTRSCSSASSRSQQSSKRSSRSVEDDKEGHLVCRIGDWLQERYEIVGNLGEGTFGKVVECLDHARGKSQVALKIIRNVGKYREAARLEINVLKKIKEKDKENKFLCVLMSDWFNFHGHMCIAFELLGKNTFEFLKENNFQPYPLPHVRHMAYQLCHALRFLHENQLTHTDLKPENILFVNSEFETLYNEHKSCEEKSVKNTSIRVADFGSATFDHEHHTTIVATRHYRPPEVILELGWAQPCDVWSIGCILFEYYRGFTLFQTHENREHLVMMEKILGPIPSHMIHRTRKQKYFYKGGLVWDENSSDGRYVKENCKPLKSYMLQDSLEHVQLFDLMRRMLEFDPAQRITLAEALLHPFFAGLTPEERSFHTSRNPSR
Protocol: CLK3 kinase activity was measured using the LANCE® Ultra technology (PerkinElmer) essentially as recommended by the supplier. Briefly, 2.5 μL of test sample at 4× the desired final concentration in 4% DMSO were dispensed into white, low volume, round bottom, 384 well plates (Corning, cat. no. 4512). 5 μL of a mixture containing recombinant human CLK3 (Thermo Fisher Scientific, cat. no. PV3826) and the labeled peptide substrate ULight™-CREBtide (PerkinElmer, cat. no. TRF0107) prepared in 1.33× kinase buffer (Thermo Fisher Scientific, cat. no. PV3189) were then added. Finally, the reactions were started by adding 2.5 μL of a 4× solution of ATP in kinase buffer. The plates were sealed with adhesive foils and incubated for 3 hours at 30° C. in the dark. The final concentrations of CLK3, ULight™—CREBtide, and ATP were 0.5 nM, 50 nM, and 300 μM, respectively. 5 μL of 40 mM EDTA were then added to terminate the reactions. The Eu-anti-phospho-CREB antibody (PerkinElmer, cat. no. TRF0200) diluted in LANCE® detection buffer (PerkinElmer, cat. no. CR97) was then added to a final concentration of 2 nM and the reactions were incubated for 1 hour at room temperature in the dark. The signals were measured using a Synergy 4 reader (BioTek) with a 320/80 nm filter for the excitation and 620/10 nm and 665/8 nm filters for the donor and acceptor emission, respectively. […] IC50 values were calculated by fitting the concentration-response data to a sigmoidal 4-parameter logistic model.

| SMILES | GI50 (MDA-MB-231 cells) [µM] | IC50 (recombinant human CLK3) [µM] |
| --- | --- | --- |
| CC1(C)/C(=N/OCCC#N)c2cc(Br)ccc2-c2ncnc(N)c21 [Example 81, 3-[(Z)-(4-amino-8-bromo-5,5-dimethyl-benzo[h]quinazolin-6-ylidene)amino]oxypropanenitrile] | > 2 | 0.0158 |
| CC1(C)/C(=N/OCc2ccc(C#N)cc2)c2cc(O[C@H]3CC[C@H](N)CC3)ccc2-c2ncnc(N)c21 [Example 20, 4-[[(Z)-[4-amino-8-(trans-4-aminocyclohexoxy)-5,5-dimethyl-benzo[h]quinazolin-6-ylidene]amino]oxymethyl]benzonitrile] | > 2 | 0.237 |
| CC1(C)/C(=N/OCCN2CCCC2)c2cc(O[C@H]3CC[C@H](N)CC3)ccc2-c2ncnc(N)c21 [Example 28, (6Z)-8-(trans-4-aminocyclohexoxy)-5,5-dimethyl-6-(2-pyrrolidin-1-ylethoxyimino)benzo[h]quinazolin-4-amine] | > 2 | 0.279 |
| CO/N=C1/c2c(ccc(OC)c2N)-c2ncnc(N)c2C1(C)C [Example 49, (6E)-8-methoxy-6-methoxyimino-5,5-dimethyl-benzo[h]quinazoline-4,7-diamine] | > 2 | 0.0144 |
| CC(C)CO/N=C1\c2cc(O[C@H]3CC[C@H](N)CC3)ccc2-c2ncnc(N)c2C1(C)C [Example 30, (6Z)-8-(trans-4-aminocyclohexoxy)-6-isobutoxyimino-5,5-dimethyl-benzo[h]quinazolin-4-amine] | 1.56 | 0.0939 |
| CC1(C)/C(=N/OCc2ccccc2)c2cc(O[C@H]3CC[C@H](N)CC3)ccc2-c2ncnc(N)c21 [Example 3, (6Z)-8-(trans-4-aminocyclohexoxy)-6-benzyloxyimino-5,5-dimethyl-benzo[h]quinazolin-4-amine] | 1.96 | 0.2 |
| CC1(C)/C(=N/O)c2cc(Br)ccc2-c2ncnc(N)c21 [Example 84, (Z)-4-amino-8-bromo-5,5-dimethyl-benzo[h]quinazolin-6-one oxime] | > 2 | 0.0106 |
| CC1(C)/C(=N/OCCN2CCCCC2)c2cc(O[C@H]3CC[C@H](N)CC3)ccc2-c2ncnc(N)c21 [Example 16, (6Z)-8-(trans-4-aminocyclohexoxy)-5,5-dimethyl-6-[2-(1-piperidyl)ethoxyimino]benzo[h]quinazolin-4-amine] | > 2 | 0.265 |
| CC(=O)c1ccc2c(c1)/C(=N\OC[C@@H]1CNC(=O)O1)C(C)(C)c1c(N)ncnc1-2 [Example 98, (5S)-5-[[(Z)-(8-acetyl-4-amino-5,5-dimethyl-benzo[h]quinazolin-6-ylidene)amino]oxymethyl]oxazolidin-2-one] | > 2 | 0.026 |
| CO/N=C1\c2cc(N(C)[C@H]3CC[C@H](N)CC3)ccc2-c2ncnc(N)c2C1(C)C [Example 44, (6Z)—N8-(trans-4-aminocyclohexyl)-6-methoxyimino-N8,5,5-trimethyl-benzo[h]quinazoline-4,8-diamine] | > 2 | 0.0158 |
| COc1ccc2c(c1)/C(=N\OCCN)C(C)(C)c1c(N)ncnc1-2 [Example 58, (6Z)-6-(2-aminoethoxyimino)-8-methoxy-5,5-dimethyl-benzo[h]quinazolin-4-amine] | > 2 | 0.0904 |
| CO/N=C1\c2cc(O)ccc2-c2ncnc(N)c2C1(C)C [Example 61, (6Z)-4-amino-6-methoxyimino-5,5-dimethyl-benzo[h]quinazolin-8-ol] | > 2 | 0.0536 |
| CO/N=C1\c2c(ccc(OC)c2Cl)-c2ncnc(N)c2C1(C)C [Example 43, (6Z)-7-chloro-8-methoxy-6-methoxyimino-5,5-dimethyl-benzo[h]quinazolin-4-amine] | > 2 | 0.0905 |
| CO/N=C1/c2c(ccc(OC)c2Cl)-c2ncnc(N)c2C1(C)C [Example 48, (6E)-7-chloro-8-methoxy-6-methoxyimino-5,5-dimethyl-benzo[h]quinazolin-4-amine] | > 2 | 0.0049 |

Continued, values first:

| GI50 (MDA-MB-231 cells) [µM] | IC50 (recombinant human CLK3) [µM] | SMILES |
| --- | --- | --- |
| 0.597 | 0.0239 | COC(=O)CCO/N=C1\c2cc(O[C@H]3CC[C@H](N)CC3)ccc2-c2ncnc(N)c2C1(C)C [Example 14, methyl 3-[(Z)-[4-amino-8-(trans-4-aminocyclohexoxy)-5,5-dimethyl-benzo[h]quinazolin-6-ylidene]amino]oxypropanoate] |
| 0.742 | 0.0166 | CC1(C)/C(=N/O)c2cc(O[C@H]3CC[C@H](N)CC3)ccc2-c2ncnc(N)c21 [Example 2, (6Z)-4-amino-8-(trans-4-aminocyclohexoxy)-5,5-dimethyl-benzo[h]quinazolin-6-one oxime] |
| 0.307 | 0.0234 | CC1(C)/C(=N/OCCc2ccccc2)c2cc(O[C@H]3CC[C@@H](N)CC3)ccc2-c2ncnc(N)c21 [Example 106, (6Z)-8-(cis-4-aminocyclohexoxy)-5,5-dimethyl-6-(2-phenylethoxyimino)benzo[h]quinazoline-4-amine] |
| 0.47 | 0.0127 | CC1(C)/C(=N\O)c2cc(O[C@H]3CC[C@H](N)CC3)ccc2-c2ncnc(N)c21 [Example 46, (6E)-4-amino-8-(trans-4-aminocyclohexoxy)-5,5-dimethyl-benzo[h]quinazolin-6-one oxime] |
| 1.46 | 0.104 | CO/N=C1/c2cc(O[C@H]3CC[C@H](N)CC3)ccc2-c2ncnc(N)c2C1(C)C [Example 45, (6E)-8-(trans-4-aminocyclohexoxy)-6-methoxyimino-5,5-dimethyl-benzo[h]quinazolin-4-amine] |
| 1.48 | 0.144 | CN(C)CCO/N=C1\c2cc(O[C@H]3CC[C@H](N)CC3)ccc2-c2ncnc(N)c2C1(C)C [Example 35, (6Z)-8-(trans-4-aminocyclohexoxy)-6-[2-(dimethylamino)ethoxyimino]-5,5-dimethyl-benzo[h]quinazolin-4-amine] |
| 1.04 | 0.0625 | COCCO/N=C1\c2cc(N[C@H]3CC[C@H](N)CC3)ccc2-c2ncnc(N)c2C1(C)C [Example 95, (6Z)—N8-(trans-4-aminocyclohexyl)-6-(2-methoxyethoxyimino)-5,5-dimethyl-benzo[h]quinazoline-4,8-diamine] |
| 0.0105 | 0.0037 | COCCO/N=C1\c2cc(O[C@H]3CC[C@@H](N)CC3)ccc2-c2ncnc(N)c2C12CCCC2 [Example 100, (6Z)-8-(cis-4-aminocyclohexoxy)-6-(2-methoxyethoxyimino)spiro[benzo[h]quinazoline-5,1′-cyclopentane]-4-amine] |
| 1.6 | 0.151 | Cc1noc(C)c1CO/N=C1\c2cc(O[C@H]3CC[C@H](N)CC3)ccc2-c2ncnc(N)c2C1(C)C [Example 25, (6Z)-8-(trans-4-aminocyclohexoxy)-6-[(3,5-dimethylisoxazol-4-yl)methoxyimino]-5,5-dimethyl-benzo[h]quinazolin-4-amine] |
| 0.647 | 0.0265 | CCOC(=O)CCO/N=C1\c2cc(O[C@H]3CC[C@H](N)CC3)ccc2-c2ncnc(N)c2C1(C)C [Example 23, ethyl 3-[(Z)-[4-amino-8-(trans-4-aminocyclohexoxy)-5,5-dimethyl-benzo[h]quinazolin-6-ylidene]amino]oxypropanoate] |
| 0.472 | 0.0034 | CO/N=C1\c2cc(C[C@H]3CC[C@@H](N)CC3)ccc2-c2ncnc(N)c2C1(C)C [Example 75, (6Z)-8-[(cis-4-aminocyclohexyl)methyl]-6-methoxyimino-5,5-dimethyl-benzo[h]quinazolin-4-amine] |
